In patent US8227618B2, “Amine-derivatives having NPY Y5 receptor antagonistic activity and the uses thereof” (Shionogi & Co., Ltd., priority 2009, dated 2012):

Experiments:
mouse NPY Y5 receptor = biological target: T1, mouse NPY Y5 receptor (Mus musculus, UniProt O70342); assay: Affinity for mouse NPY Y5 receptor ([125I] peptide YY binding, CHO cell membranes); conditions: CHO membranes expressing mouse NPY Y5 receptor, [125I] peptide YY 60 pM
T1 construct: expressed in transfected cells
T1 sequence (O70342 1-466): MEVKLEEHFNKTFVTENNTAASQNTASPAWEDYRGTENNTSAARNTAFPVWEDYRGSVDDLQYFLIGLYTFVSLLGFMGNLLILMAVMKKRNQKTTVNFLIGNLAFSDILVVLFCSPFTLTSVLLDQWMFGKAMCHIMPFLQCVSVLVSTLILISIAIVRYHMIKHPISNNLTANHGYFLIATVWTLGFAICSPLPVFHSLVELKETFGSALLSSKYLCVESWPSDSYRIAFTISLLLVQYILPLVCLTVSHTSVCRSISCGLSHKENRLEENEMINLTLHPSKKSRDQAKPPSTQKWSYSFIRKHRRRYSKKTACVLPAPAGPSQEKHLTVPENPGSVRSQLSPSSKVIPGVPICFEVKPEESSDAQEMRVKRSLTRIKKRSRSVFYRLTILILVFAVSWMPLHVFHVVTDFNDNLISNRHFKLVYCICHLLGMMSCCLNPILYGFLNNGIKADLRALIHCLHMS
Source text: cDNA sequence encoding a mouse NPY Y5 receptor (Biochim. Biophys. Acta 1328:83-89, 1997) was cloned in a vector (pME18S, Takebe et al. Mol. Cell. Biol. 8, 466-472). The obtained expression vector was transfected into CHO cells as a host by using Lipofect AMINE reagent (Trademark, Gico BRL Co., Ltd.) according to the instruction manual. The cells that stably express mouse NPY Y5 receptor were obtained.
The membranes prepared from the CHO cells expressing mouse NPY Y5 receptor, the compound of this invention and 30,000 cpm [^125I] peptide YY (60 pM of final concentration: Amersham) were incubated in the assay buffer (20 mM HEPES-Hanks buffer containing 0.1% bovine serum albumin, pH 7.4) at 25° C. for 2 hours, and then the membrane was filtered from the mixture through a glassfilter (GF/C) presoaked with 1% polyethyleneimine. After washing with 50 mM Tris-HCl buffer (pH 7.4), radioactivity retained on the filters was quantified with a gamma counter.
Nonspecific binding was defined as the amount of radioactivity bound to the membranes after incubation in the presence of 200 nM of peptide YY. The 50% inhibitory concentration of the test compound against the specific peptide YY binding (IC50 value) was calculated (Inui, A. et al. Endocrinology 131, 2090-2096 (1992)).

NPY Y5 receptor = biological target: T2, NPY Y5 receptor (Mus musculus, UniProt O70342); assay: Inhibition of Y5 agonist-induced food intake in mice; assay type: in vivo, C57BL/6J mice; conditions: 4 hours after dosing
T2 construct: from tissue; host or cells: brain of living male C57BL/6J mice
T2 sequence (O70342 1-466): T1 sequence (O70342 1-466)
Experimental: Under diethylether anesthesia the skull of male C57BL/6J mice (12-14 week old, 25-30 g) was exposed by making an incision about 1-cm long from external occipital crest to nasal dorsum, and then drilled in the 1-mm lateral position to the left following 1-mm posterior from bregma. After recovery from anesthesia mice were dosed with either 0.5% hydroxypropylmethyl cellulose solution (vehicle, Shin-Etsu Chemical Co., Ltd) or the compounds of this invention suspended in the 0.5% hydroxypropylmethyl cellulose solution. At one hour after the treatment, each animal received saline or a NPY Y5 receptor specific agonist, [cPP^1-7, NPY^19-23, Ala^31, Aib^32, Gln^34]-hPancreatic Polypeptide (0.1 nmol/1.5 μL saline/mouse) through the skull opening using a canula. Residual food was measured at 2 and 4 hours after the treatment. The inhibition ratio of Y5 agonist-induced food intake by the compounds was calculated as follows; inhibition ratio (%)=[1−(food intake (g) by the compound treated and Y5 agonist received mice−food intake (g) by the vehicle treated and saline received mice)/(food intake (g) by the vehicle treated and Y5 agonist received mice−food intake (g) by the vehicle treated and saline received mice)]×100.

P-gp = biological target: T3, P-gp (Mus musculus, UniProt P21447); assay: Potential for drug-drug interactions through P-gp in vivo (Kp with/without cyclosporin A); conditions: mice, Kp with versus without cyclosporin A (20 mg/kg)
T3 construct: effectively excreted through P-gp from the brain to vessels; from tissue; host or cells: brain / blood-brain barrier of living C57BL/6J mice
Experimental: To examine the potential for drug-drug interactions through P-gp in vivo, the Kp values of compounds of this invention with (KpCSA) or without (KpCont.) cyclosporin A (20 mg/kg), a P-gp inhibitor, were calculated. The KpCSA value of Compound (I-72) was 1.14, and the calculated KpCSA KpCont. ratio was 0.9.
On the other hand the potential for drug-drug interactions through P-pg of amide compound B which has similar structure of Compound (1-72) was also examined in mice. The KpCont. and KpCSA were 0.04 and 0.84, respectively.

[1] = Suppression of body weight gain in high-fat diet-induced obese mice; assay type: in vivo, C57BL/6J mice; conditions: 6 mg/kg b.i.d. for 3 weeks, versus vehicle
Experimental: Prior to administration of the compounds of this invention, male C57BL/6J mice were given a high-fat diet to induce obese. The high-fat diet-induced obese mice (13-14 week old, body weight 28-33 g) were dosed with 0.5% hydroxypropylmethyl cellulose solution (vehicle, Shin-Etsu Chemical Co., Ltd) or the compounds of this invention suspended in the 0.5% hydroxypropylmethyl cellulose solution twice a day (b.i.d.) for 3 weeks with the same diet. The changes in body weight were monitored daily.

[2] = rows without asterisk (6 mg/kg per text)

T3 sequence (P21447 whole entry): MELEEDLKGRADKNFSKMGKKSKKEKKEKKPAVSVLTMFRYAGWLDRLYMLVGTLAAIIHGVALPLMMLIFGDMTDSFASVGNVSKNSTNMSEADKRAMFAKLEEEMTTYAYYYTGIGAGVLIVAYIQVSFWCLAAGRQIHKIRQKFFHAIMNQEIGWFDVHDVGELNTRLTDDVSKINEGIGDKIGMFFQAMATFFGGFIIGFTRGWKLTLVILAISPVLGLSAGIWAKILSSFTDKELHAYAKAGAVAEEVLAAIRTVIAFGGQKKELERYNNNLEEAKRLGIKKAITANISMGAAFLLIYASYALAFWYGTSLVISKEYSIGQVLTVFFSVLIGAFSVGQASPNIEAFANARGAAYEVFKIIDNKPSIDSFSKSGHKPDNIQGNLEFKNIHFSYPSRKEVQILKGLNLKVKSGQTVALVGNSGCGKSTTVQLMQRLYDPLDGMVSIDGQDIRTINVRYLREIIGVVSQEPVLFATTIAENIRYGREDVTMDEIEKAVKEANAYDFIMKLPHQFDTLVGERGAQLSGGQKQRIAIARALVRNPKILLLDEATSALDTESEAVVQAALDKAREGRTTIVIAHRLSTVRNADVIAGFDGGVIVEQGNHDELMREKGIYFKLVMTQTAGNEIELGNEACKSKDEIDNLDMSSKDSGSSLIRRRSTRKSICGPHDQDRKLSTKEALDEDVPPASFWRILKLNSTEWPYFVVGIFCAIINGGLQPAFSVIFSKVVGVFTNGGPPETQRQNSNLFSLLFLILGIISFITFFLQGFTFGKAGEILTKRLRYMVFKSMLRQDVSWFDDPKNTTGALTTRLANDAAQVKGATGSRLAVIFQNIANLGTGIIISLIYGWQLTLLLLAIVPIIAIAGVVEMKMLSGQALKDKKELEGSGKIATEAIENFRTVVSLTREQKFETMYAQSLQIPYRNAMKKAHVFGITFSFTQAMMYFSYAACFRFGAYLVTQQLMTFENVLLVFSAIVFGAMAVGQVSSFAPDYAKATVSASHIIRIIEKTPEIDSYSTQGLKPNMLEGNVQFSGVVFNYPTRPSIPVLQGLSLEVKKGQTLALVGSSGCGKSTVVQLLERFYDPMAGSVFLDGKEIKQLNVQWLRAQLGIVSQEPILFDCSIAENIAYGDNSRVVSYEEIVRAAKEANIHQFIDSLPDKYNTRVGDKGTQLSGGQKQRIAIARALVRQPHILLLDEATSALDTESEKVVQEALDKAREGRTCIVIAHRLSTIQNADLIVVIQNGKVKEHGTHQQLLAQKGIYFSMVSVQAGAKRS

Row | Compound | IC50 (mouse NPY Y5 receptor) | Inhibition ratio of Y5 agonist-induced food intake (NPY Y5 receptor; [2]) | also measured
1 | CCC(C)S(=O)(=O)NC[C@H]1CC[C@H](Nc2nc3cc(F)ccc3o2)CC1 (stereo partly shown) [Ij-160] | 0.55 nM |  | Inhibition ratio of Y5 agonist-induced food intake (NPY Y5 receptor; *Dose: 1.5 mg/kg): 36.6%*
2 | CC(C)(C)S(=O)(=O)NC[C@H]1CC[C@H](Nc2ccn(-c3ccccc3F)n2)CC1 [Ij-110] |  | 90.3% | 
3 | CC(C)S(=O)(=O)NC[C@H]1CC[C@H](Nc2nc3ccc(F)cc3o2)CC1 [Ij-156] | 0.68 nM |  | Inhibition ratio of Y5 agonist-induced food intake (NPY Y5 receptor; **Dose: 12.5 mg/kg): 90.4%**
4 | CC(C)S(=O)(=O)NC[C@H]1CC[C@H](Nc2nc3cc(F)ccc3o2)CC1 [Ij-155] | 0.88 nM |  | Inhibition ratio of Y5 agonist-induced food intake (NPY Y5 receptor; *Dose: 1.5 mg/kg): 56.1%*
5 | C[C@@H]1CN(c2ccc(NC(=O)[C@H]3CC[C@H](NS(=O)(=O)C(C)(C)C)CC3)cc2)C[C@H](C)O1 [B, reference compound] |  |  | KpCSA/KpCont. ratio (P-gp): 20.5
6 | CCS(=O)(=O)NC[C@H]1CC[C@H](Nc2nc3ccccc3o2)CC1 [Ij-150] | 4.66 nM | 25.3% | 
7 | CC(C)S(=O)(=O)NC[C@H]1CC[C@H](Nc2ccc(OC3CCCC3)nn2)CC1 [Ij-52] | 0.99 nM |  | 
8 | C[C@@H]1CN(c2ccc(NC[C@H]3CC[C@H](NS(=O)(=O)C(C)(C)C)CC3)cc2)C[C@H](C)O1 [Compound I-72] |  |  | KpCSA/KpCont. ratio (P-gp): 0.9
9 | CCS(=O)(=O)N[C@H]1CC[C@H](CNc2ccc(S(=O)(=O)c3ccc(F)cc3)cc2)CC1 [Ii-34] | 11 nM |  | 
10 | CCCn1c(=O)oc2cc(NC[C@H]3CC[C@H](NS(=O)(=O)CC)CC3)ccc21 [Ii-16] | 1.2 nM |  | 
11 | CC(C)S(=O)(=O)N[C@H]1CC[C@H](CNc2cc(F)cc(N3CCOCC3)c2)CC1 [Ii-55] |  | 64.3% | 
12 | CC1CC(C)CN(c2cccc(NC[C@H]3CC[C@H](NS(=O)(=O)C(C)(C)C)CC3)c2)C1 (stereo partly shown) [Ii-1] | 0.1 nM |  | 
13 | CCS(=O)(=O)NC[C@H]1CC[C@H](Nc2ccn(-c3ccccc3F)n2)CC1 [Ij-112] |  |  | Body weight gain [1]: suppresses Body Weight Gain
14 | Cn1c(=O)oc2cc(NC[C@H]3CC[C@H](NS(=O)(=O)C(C)(C)C)CC3)cc(F)c21 [Ii-45] |  | 76.2% | Body weight gain [1]: suppresses Body Weight Gain
15 | CCS(=O)(=O)NC[C@H]1CC[C@H](Nc2ccc(-c3ccccc3)cn2)CC1 [Ij-4] |  | 88.2% | 
16 | CCC(C)S(=O)(=O)NC[C@H]1CC[C@H](Nc2nc3ccc(F)cc3o2)CC1 (stereo partly shown) [Ij-161] | 0.69 nM |  | Inhibition ratio of Y5 agonist-induced food intake (NPY Y5 receptor; *Dose: 1.5 mg/kg): 15.8%*
17 | CC(C)S(=O)(=O)NC[C@H]1CC[C@H](Nc2ccn(-c3ccccc3Cl)n2)CC1 [Ij-157] | 0.16 nM |  | 

Second part, led by results:

Row | IC50 (mouse NPY Y5 receptor) | Inhibition ratio of Y5 agonist-induced food intake (NPY Y5 receptor; [2]) | Compound | also measured
18 | 0.39 nM |  | CC(C)(C)S(=O)(=O)NC[C@H]1CC[C@H](Nc2nc3ccc(C(F)(F)F)cc3s2)CC1 [Ij-66] | 
19 | 0.92 nM | 62.6% | CCS(=O)(=O)NC[C@H]1CC[C@H](Nc2nc3ccccc3s2)CC1 [Ij-149] | 
20 | 0.85 nM | 70.5% | CC(C)(C)S(=O)(=O)NC[C@H]1CC[C@H](Nc2nc3cc(F)ccc3o2)CC1 [Ij-158] | 
21 | 0.7 nM |  | CC(C)S(=O)(=O)NC[C@H]1CC[C@H](Nc2ccc(C(F)(F)F)cn2)CC1 [Ij-1] | 
22 | 0.35 nM |  | CC(C)S(=O)(=O)NC[C@H]1CC[C@H](Nc2nc3ccc(F)cc3s2)CC1 [Ij-152] | Inhibition ratio of Y5 agonist-induced food intake (NPY Y5 receptor; *Dose: 1.5 mg/kg): 62.6%*
23 | 0.17 nM | 81.3% | CC(C)S(=O)(=O)NC[C@H]1CC[C@H](Nc2nc3cc(Cl)ccc3s2)CC1 [Ij-154] | 
24 | 2.5 nM |  | CC(C)(C)S(=O)(=O)NC[C@H]1CC[C@H](Nc2ccc3ccccc3n2)CC1 [Ij-59] | 
25 | 0.12 nM |  | CC(C)S(=O)(=O)NC[C@H]1CC[C@H](Nc2nc3cc(F)ccc3s2)CC1 [Ij-151] | Inhibition ratio of Y5 agonist-induced food intake (NPY Y5 receptor; *Dose: 1.5 mg/kg): 78.4%*
26 | 0.6 nM | 83.2% | CC(C)(C)S(=O)(=O)NC[C@H]1CC[C@H](Nc2nc3ccc(F)cc3o2)CC1 [Ij-159] | 
27 | 0.12 nM | 73.0% | CC(C)S(=O)(=O)NC[C@H]1CC[C@H](Nc2nc3cccc(F)c3s2)CC1 [Ij-153] | 
